Assay results: patent publication US8937183B2, “Detection of hydrogen peroxide” (Promega Corporation, priority 2011, dated 2015)

Legend:
[1] = Signal strength differences due to reaction pH and buffer composition (hydrogen peroxide, D-cysteine conversion, LDR); assay type: biochemical; conditions: for Net Average Signals at 15 Minutes / Net Average Signals at 60 Minutes / Net Average Signals at 105 Minutes: 100 μl of 10 μM H2O2 added
Experimental: A 30 μl sample of 4 mg/ml PBI 4458 in DMSO was diluted to 1.5 ml with Nanopure water, and 50 μl added to wells A1-12 and E1-12 of a microtiter plate. A 30 μl sample of 4 mg/ml PBI 4472 in DMSO was diluted to 1.5 ml with Nanopure, and 50 μl added to wells B1-12 and F1-12 of the plate. A 30 μl sample of 4 mg/ml PBI 4480 in DMSO was diluted to 1.5 ml with Nanopure water, and 50 μl added to wells C1-12 and G1-12 of the plate. A 30 μl sample of 4 mg/ml PBI 4481 in DMSO was diluted to 1.5 ml with Nanopure water, and 50 μl added to wells D1-12 and H1-12 of the plate. To the plate, a 50 μl sample of 200 mM KHPO4, pH 7.4 was added to wells A1-D4; 50 μl 200 mM Tris buffer, pH 7.4 was added to wells A5-D8; 50 μl 250 mM HEPES buffer, pH 7.5 was added to wells A9-D12; 50 μl 200 mM KHPO4 buffer, pH 9.2 was added to wells E1-H4; 50 μl 250 mM Tris buffer, pH 10.4 was added to wells E5-H8; and 50 μl 100 mM CAPS buffer, pH 10.4 was added to wells E9-H12.
A sample of hydrogen peroxide (30%, Sigma, H1009-5 ml) was diluted to 10 μM with Nanopure water, and 100 μl added to columns 3, 4, 7, 8, 11, 12 wells A-H of the plate. 100 μl Nanopure water was added to columns 1, 2, 5, 6, 9 and 10 of the plate. The plate was incubated at room temperature for 15 minutes.
A conversion solution was made by mixing 5 ml of 1 M HEPES buffer, pH 7.5, 4.9 ml of Nanopure water and 100 μl of 100 mM D-cysteine (in Nanopure water), and […] added to all wells of a luminometer plate.
After incubation, 25 μl of sample from all wells in the plate was transferred and mixed into the corresponding wells in the luminometer plate, incubated 2-3 minutes at room temperature, and 50 μl LDR (Example 23) added. The luminometer plate was incubated for 15 minutes at room temperature, and bioluminescence detected on a GloMax® luminometer.
Additional samples were taken at 60 and 105 minutes and added to a fresh luminometer plates containing 25 μl of conversion solution in all wells. The plates were then incubated for 15 minutes at room temperature, and bioluminescence detected as previously described.

[2] = Light generation from compounds following incubation with hydrogen peroxide in different pH solutions (D-cysteine conversion, LDR); assay type: biochemical; conditions: for Signal to Background Ratios: signal with peroxide to background no peroxide
Experimental: In this experiment, various compounds were tested for their ability to detect hydrogen peroxide in different pH solutions. Several compounds are shown to give much better signal strength and signal to background ratios than PBI 3048 (Example 23). 4 mg/ml solutions of compounds PBI 4480, 4481, 4452, 4470, 4472, 3048 (FIGS. 1 and 2) were made by dissolving them in DMSO (Fluka 41641). 30 μl of the compound solutions was diluted to 1.5 ml with Nanopure water, and 50 μl aliquots added as follows into a white, 96-well luminometer plate: PBI 4481, row A1-12; PBI 4480, row B1-12; PBI 4452, row C1-12; PBI 3048, row D1-12; PBI 4472, row E1-12 and PBI 4470, row F1-12.
25 μl of 200 mM TRIS buffer, pH 7.6 was added to wells A1-F4, 25 μl of 200 mM TRIS buffer, pH 8.8 was added to wells A5-F8, and 25 μl of 200 mM Tris buffer, pH 10.4 was added […].
30% hydrogen peroxide (Sigma H 1009-5 ml) was diluted to 40 μM in Nanopure water, and 25 μl added to columns 3, 4, 7, 8, 11 and 12 of the plate. 25 μl water was added to columns 1, 2, 5, 6, 9, and 10 of the plate, and the plate incubated at room temperature for 60 minutes.
A conversion solution was made by mixing 100 μl of 100 mM D-cysteine, 1 ml Tris Buffer pH 8.8 and 8.9 ml nanopure water. After mixing, 80 μl of the solution was added to wells A1-F12 of a new luminometer plate.
After incubation, 20 μl of sample from wells A1-F12 of the first plate was transferred to the same well in the new luminometer plate. The new plate was incubated at room temperature for 5 minutes, 100 μl of LDR (Example 23) was added to wells A1-F12, and bioluminescence detected on a Glo Max® luminometer (Promega).
The RLUs for the duplicate wells were averaged. The averages for the wells containing hydrogen peroxide were compared to the wells without hydrogen peroxide at the same pH (Table 2). BZT is used to designate benzothiazole derivatives of the compounds.
The Signal to Background (S/B) ratio is used to compare assay reagents with very difference signal strengths. An assay with a higher S/B ratio is often considered a better assay than one with a smaller S/B ratio (with all other factors being relatively equal).

CC1(C)OB(c2ccc(COc3ccc4nc(C#N)sc4c3)cc2)OC1(C)C [PBI 4472, 6-((4-(4,4,5,5-tetramethyl-1,3,2-dioxaborolan-2-yl)benzyl)oxy)benzo-[d]thiazole-2-carbonitrile]
Signal to Background Ratios at 15 Minutes ([1]; CAPS pH 10.4, 15 minutes): 17.0 | Net Average Signals at 15 Minutes ([1]; CAPS pH 10.4, 15 minutes): 3,154,440 RLU | Signal to Background Ratios at 60 Minutes ([1]; CAPS pH 10.4, 60 minutes): 15.4 | Net Average Signals at 60 Minutes ([1]; CAPS pH 10.4, 60 minutes): 5,425,701 RLU | Signal to Background Ratios at 105 Minutes ([1]; CAPS pH 10.4, 105 minutes): 11.3 | Net Average Signals at 105 Minutes ([1]; CAPS pH 10.4, 105 minutes): 7,554,957 RLU | Signal to Background Ratios at 15 Minutes ([1]; HEPES pH 7.5, 15 minutes): 3.9 | Net Average Signals at 15 Minutes ([1]; HEPES pH 7.5, 15 minutes): 58,399 RLU | Signal to Background Ratios at 60 Minutes ([1]; HEPES pH 7.5, 60 minutes): 8.0 | Net Average Signals at 60 Minutes ([1]; HEPES pH 7.5, 60 minutes): 159,982 RLU | Signal to Background Ratios at 105 Minutes ([1]; HEPES pH 7.5, 105 minutes): 8.2 | Net Average Signals at 105 Minutes ([1]; HEPES pH 7.5, 105 minutes): 259,725 RLU | Net Average Signals at 15 Minutes ([1]; KPO4 Ph 7.4, 15 minutes): 43,867 RLU | Signal to Background Ratios at 15 Minutes ([1]; KPO4 pH 7.4, 15 minutes): 3.1 | Signal to Background Ratios at 60 Minutes ([1]; KPO4 pH 7.4, 60 minutes): 4.9 | Net Average Signals at 60 Minutes ([1]; KPO4 pH 7.4, 60 minutes): 102,614 RLU | Signal to Background Ratios at 105 Minutes ([1]; KPO4 pH 7.4, 105 minutes): 5.3 | Net Average Signals at 105 Minutes ([1]; KPO4 pH 7.4, 105 minutes): 168,787 RLU | Signal to Background Ratios at 15 Minutes ([1]; KPO4 pH 9.2, 15 minutes): 11.0 | Net Average Signals at 15 Minutes ([1]; KPO4 pH 9.2, 15 minutes): 400,087 RLU | Signal to Background Ratios at 60 Minutes ([1]; KPO4 pH 9.2, 60 minutes): 14.7 | Net Average Signals at 60 Minutes ([1]; KPO4 pH 9.2, 60 minutes): 781,296 RLU | Signal to Background Ratios at 105 Minutes ([1]; KPO4 pH 9.2, 105 minutes): 14.6 | Net Average Signals at 105 Minutes ([1]; KPO4 pH 9.2, 105 minutes): 1,380,626 RLU | Signal to Background Ratios at 15 Minutes ([1]; TRIS pH 10.4, 15 minutes): 32.9 | Net Average Signals at 15 Minutes ([1]; TRIS pH 10.4, 15 minutes): 1,530,303 RLU | Signal to Background Ratios at 60 Minutes ([1]; TRIS pH 10.4, 60 minutes): 34.2 | Net Average Signals at 60 Minutes ([1]; TRIS pH 10.4, 60 minutes): 3,777,236 RLU | Signal to Background Ratios at 105 Minutes ([1]; TRIS pH 10.4, 105 minutes): 26.5 | Net Average Signals at 105 Minutes ([1]; TRIS pH 10.4, 105 minutes): 6,279,007 RLU | Signal to Background Ratios at 15 Minutes ([1]; Tris pH 7.4, 15 minutes): 6.6 | Net Average Signals at 15 Minutes ([1]; Tris pH 7.4, 15 minutes): 121,480 RLU | Signal to Background Ratios at 60 Minutes ([1]; Tris pH 7.4, 60 minutes): 13.2 | Net Average Signals at 60 Minutes ([1]; Tris pH 7.4, 60 minutes): 371,397 RLU | Signal to Background Ratios at 105 Minutes ([1]; Tris pH 7.4, 105 minutes): 13.6 | Net Average Signals at 105 Minutes ([1]; Tris pH 7.4, 105 minutes): 658,967 RLU | Signal to Background Ratios ([2]; pH 7.6): 18.0 | averaged RLUs (bioluminescence) ([2]; pH 7.6 TRIS buffer, No H2O2, 60 minutes): 102,925 RLU | averaged RLUs (bioluminescence) ([2]; pH 7.6 TRIS buffer, With H2O2 (25 μl of 40 μM added), 60 minutes): 1,854,434 RLU | Signal to Background Ratios ([2]; pH 8.8): 31.6 | averaged RLUs (bioluminescence) ([2]; pH 8.8 TRIS buffer, No H2O2, 60 minutes): 163,710 RLU | averaged RLUs (bioluminescence) ([2]; pH 8.8 TRIS buffer, With H2O2 (25 μl of 40 μM added), 60 minutes): 5,175,361 RLU | Signal to Background Ratios ([2]; pH 10.4): 24.1 | averaged RLUs (bioluminescence) ([2]; pH 10.4 Tris buffer, No H2O2, 60 minutes): 337,921 RLU | averaged RLUs (bioluminescence) ([2]; pH 10.4 Tris buffer, With H2O2 (25 μl of 40 μM added), 60 minutes): 8,159,216 RLU
